Laboratory results reported in US20050075375A1 (priority 2003, published 2005).
Like-named read-outs stand apart in the source and are kept apart here.

Tested on: monocistronic NK5.1 HCV replicon in Huh7 cells
Assay: HCV replicon assay, monocistronic replicon cell line
Assay type: cell-based, hepatitis C virus
Conditions: Hepatitis C virus, read-out: Mono EC50 Median
Method in brief: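 EC50 derives from the HCV RNA/GAPDH RNA ratio by one-step TaqMan RT-PCR, relative to DMSO-only wells. Compounds (six half-log concentrations, 0.6% DMSO) were incubated 3 days at 37 °C with NK5.1 monocistronic replicon Huh7 cells plated a day earlier.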

[1] = Huh-7, 72 h, Table 1, monocistronic replicon in Huh7 cells, 3 days incubation, HCV RNA/GAPDH RNA by TaqMan RT-PCR
[2] = Huh-7, monocistronic NK5.1 HCV replicon in Huh7 cells, median value

| SMILES | EC50 [1] | EC50 [2] |
| --- | --- | --- |
| COc1cccc(-c2nc(-c3ccc(C(F)(F)F)cn3)no2)c1 [Compound 220, 2-[5-(3-Methoxy-phenyl)-[1,2,4]oxadiazol-3-yl]-5-trifluoromethyl-pyridine] | > 32 µM | > 32 µM |
| Oc1ccc2ccccc2c1-c1nc(-c2ccc(C(F)(F)F)cn2)no1 [Compound 221, 1-[3-(5-Trifluoromethyl-pyridin-2-yl)-[1,2,4]oxadiazol-5-yl]-naphthalen-2-ol] | 4.8 µM | 4.8 µM |
| COc1ccc(-c2nc(-c3ccc(C(F)(F)F)cn3)no2)c(O)c1 [Compound 222, 5-Methoxy-2-[3-(5-trifluoromethyl-pyridin-2-yl)-[1,2,4]oxadiazol-5-yl]-phenol] | > 32 µM | > 32 µM |
| Oc1ccccc1-c1nc(-c2ccc(C(F)(F)F)cn2)no1 [Compound 223] | 19 µM | 19 µM |
| COc1ccc(O)c(-c2nc(-c3ccc(C(F)(F)F)cn3)no2)c1 [Compound 224, 4-Methoxy-2-[3-(5-trifluoromethyl-pyridin-2-yl)-[1,2,4]oxadiazol-5-yl]-phenol] | 3.2 µM | 3.2 µM |
| Cc1ccc(O)c(-c2nc(-c3ccc(C(F)(F)F)cn3)no2)c1 [Compound 225, 4-Methyl-2-[3-(5-trifluoromethyl-pyridin-2-yl)-[1,2,4]oxadiazol-5-yl]-phenol] | 7.5 µM | 7.5 µM |
| O=[N+]([O-])c1ccc(Cl)c(-c2nc(-c3ccc(C(F)(F)F)cn3)no2)c1 [Compound 226, 2-[5-(2-Chloro-5-nitro-phenyl)-[1,2,4]oxadiazol-3-yl]-5-trifluoromethyl-pyridine] | 4.3 µM | 4.3 µM |
| FC(F)(F)c1ccc(-c2noc(-c3cccc4ccccc34)n2)nc1 [Compound 227, 2-(5-Naphthalen-1-yl-[1,2,4]oxadiazol-3-yl)-5-trifluoromethyl-pyridine] | > 32 µM | > 32 µM |
| Oc1ccc(Br)cc1-c1nc(-c2ncccc2-c2ccccc2)no1 [Compound 228, 4-Bromo-2-[3-(3-phenyl-pyridin-2-yl)-[1,2,4]oxadiazol-5-yl]-phenol] | 2.2 µM | 2.2 µM |
| Oc1ccc2ccccc2c1-c1nc(-c2ncccc2-c2ccccc2)no1 [Compound 229, 1-[3-(3-Phenyl-pyridin-2-yl)-[1,2,4]oxadiazol-5-yl]-naphthalen-2-ol] | > 10 µM | > 10 µM |
| COc1cccc(-c2nc(-c3ncccc3-c3ccccc3)no2)c1O [Compound 230, 2-Methoxy-6-[3-(3-phenyl-pyridin-2-yl)-[1,2,4]oxadiazol-5-yl]-phenol] | 9.8 µM | 9.8 µM |
| CN(C)c1ccc(-c2nc(-c3ncccc3-c3ccccc3)no2)c(O)c1 [Compound 231, 5-Dimethylamino-2-[3-(3-phenyl-pyridin-2-yl)-[1,2,4]oxadiazol-5-yl]-phenol] | 2.4 µM | 2.4 µM |
| Cc1ccc(O)c(-c2nc(-c3ncccc3-c3ccccc3)no2)c1 [Compound 232, 4-Methyl-2-[3-(3-phenyl-pyridin-2-yl)-[1,2,4]oxadiazol-5-yl]-phenol] | > 32 µM | > 32 µM |
| COc1cc(O)c(-c2nc(-c3ncccc3-c3ccccc3)no2)c(OC)c1 [Compound 233, 3,5-Dimethoxy-2-[3-(3-phenyl-pyridin-2-yl)-[1 ,2,4]oxadiazol-5-yl]-phenol] | 2.1 µM | 2.1 µM |
| CCOc1ccc(-c2nc(-c3ncccc3-c3ccccc3)no2)c(O)c1 [Compound 234, 5-Ethoxy-2-[3-(3-phenyl-pyridin-2-yl)-[1,2,4]oxadiazol-5-yl]-phenol] | > 19 µM | > 19 µM |
| COc1ccc(-c2nc(-c3ncccc3-c3ccccc3)no2)c(O)c1 [Compound 235, 5-Methoxy-2-[3-(3-phenyl-pyridin-2-yl)-[1,2,4]oxadiazol-5-yl]-phenol] | 2.3 µM | 2.3 µM |
| Oc1ccc(O)c(-c2nc(-c3ncccc3-c3ccccc3)no2)c1 [Compound 236, 2-[3-(3-Phenyl-pyridin-2-yl)-[1,2,4]oxadiazol-5-yl]-benzene-1,4-diol] | 2.2 µM | 2.2 µM |
| COc1cccc(-c2nc(-c3ccc(NC(=O)OC(C)(C)C)cn3)no2)c1O [Compound 237, {6-[5-(2-Hydroxy-3-methoxy-phenyl)-[1,2,4]oxadiazol-3-yl]-pyridin-3-yl}-carbamic acid tert-butyl ester] | > 32 µM | > 32 µM |
| COc1ccc(-c2nc(-c3ccc(NC(=O)OC(C)(C)C)cn3)no2)c(O)c1 [Compound 238, {6-[5-(2-Hydroxy-4-methoxy-phenyl)-[1,2,4]oxadiazol-3-yl]-pyridin-3-yl}-carbamic acid tert-butyl ester] | 1.9 µM | 1.9 µM |
| COc1ccc(O)c(-c2nc(-c3ccc(NC(=O)OC(C)(C)C)cn3)no2)c1 [Compound 239, {6-[5-(2-Hydroxy-5-methoxy-phenyl)-[1,2,4]oxadiazol-3-yl]-pyridin-3-yl}-carbamic acid tert-butyl ester] | 2.1 µM | 2.1 µM |
| COc1cc(O)c(-c2nc(-c3ncccc3C)no2)c(OC)c1 [Compound 240, 3,5-Dimethoxy-2-[3-(3-methyl-pyridin-2-yl)-[1,2,4]oxadiazol-5-yl]-phenol] | 0.7 µM | 0.7 µM |

| SMILES | EC50 [1] | EC50 [2] |
| --- | --- | --- |
| COc1cccc(O)c1-c1nc(-c2ncccc2C)no1 [Compound 241, 3-Methoxy-2-[3-(3-methyl-pyridin-2-yl)-[1,2,4]oxadiazol-5-yl]-phenol] | > 10 µM | > 10 µM |
| COc1cc(Br)cc(-c2nc(-c3ncccc3C)no2)c1O [Compound 242, 4-Bromo-2-methoxy-6-[3-(3-methyl-pyridin-2-yl)-[1,2,4]oxadiazol-5-yl]-phenol] | 8.3 µM | 8.3 µM |
| CCOc1ccc(-c2nc(-c3ncccc3C)no2)c(O)c1 [Compound 243, 5-Ethoxy-2-[3-(3-methyl-pyridin-2-yl)-[1,2,4]oxadiazol-5-yl]-phenol] | 2.2 µM | 2.2 µM |
| CC(C)(C)OC(=O)Nc1ccc(-c2noc(-c3cc(Br)ccc3O)n2)nc1 [Compound 244, {6-[5-(5-Bromo-2-hydroxy-phenyl)-[1,2,4]oxadiazol-3-yl]-pyridin-3-yl}-carbamic acid tert-butyl ester] | 7.3 µM | 7.3 µM |
| Cc1ccc(O)c(-c2nc(-c3ccc(NC(=O)OC(C)(C)C)cn3)no2)c1 [Compound 245, {6-[5-(2-Hydroxy-5-methyl-phenyl)-[1,2,4]oxadiazol-3-yl]-pyridin-3-yl}-carbamic acid tert-butyl ester] | > 32 µM | > 32 µM |
| COc1cccnc1-c1noc(-c2cccc(OC)c2O)n1 [Compound 246, 2-Methoxy-6-[3-(3-methoxy-pyridin-2-yl)-[1,2,4]oxadiazol-5-yl]-phenol] | 19 µM | 19 µM |
| COc1ccc(-c2nc(-c3ncccc3OC)no2)c(O)c1 [Compound 247, 5-Methoxy-2-[3-(3-methoxy-pyridin-2-yl)-[1,2,4]oxadiazol-5-yl]-phenol] | 4.1 µM | 4.1 µM |
| COc1ccc(O)c(-c2nc(-c3ncccc3OC)no2)c1 [Compound 248, 4-Methoxy-2-[3-(3-methoxy-pyridin-2-yl)-[1,2,4]oxadiazol-5-yl]-phenol] | 13 µM | 13 µM |
| COc1cccnc1-c1noc(-c2cc(Br)ccc2O)n1 [Compound 249, 4-Bromo-2-[3-(3-methoxy-pyridin-2-yl)-[1,2,4]oxadiazol-5-yl]-phenol] | 0.76 µM | 0.76 µM |
| COc1cccnc1-c1noc(-c2cc(C)ccc2O)n1 [Compound 250, 2-[3-(3-Methoxy-pyridin-2-yl)-[1,2,4]oxadiazol-5-yl]-4-methyl-phenol] | 2 µM | 2 µM |
| COc1cccc(-c2nc(-c3ccc(N)cn3)no2)c1O [Compound 251, 2-[3-(5-Amino-pyridin-2-yl)-[1,2,4]oxadiazol-5-yl]-6-methoxy-phenol] | – | > 32 µM |
| COc1ccc(O)c(-c2nc(-c3ccc(N)cn3)no2)c1 [Compound 252, 2-[3-(5-Amino-pyridin-2-yl)-[1,2,4]oxadiazol-5-yl]-4-methoxy-phenol] | – | 9.2 µM |
| COc1ccc(-c2nc(-c3ccc(N)cn3)no2)c(O)c1 [Compound 253] | – | > 32 µM |
| Nc1ccc(-c2noc(-c3cc(Br)ccc3O)n2)nc1 [Compound 254, 2-[3-(5-Amino-pyridin-2-yl)-[1,2,4]oxadiazol-5-yl]-4-bromo-phenol] | – | 32 µM |
| Cc1ccc(O)c(-c2nc(-c3ccc(N)cn3)no2)c1 [Compound 255, 2-[3-(5-Amino-pyridin-2-yl)-[1,2,4]oxadiazol-5-yl]-4-methyl-phenol] | – | 24 µM |
| Oc1ccc2ccccc2c1-c1nc(-c2ncccc2Br)no1 [Compound 256, 1-[3-(3-Bromo-pyridin-2-yl)-[1,2,4]oxadiazol-5-yl]-naphthalen-2-ol] | – | 2.1 µM |
| COc1cccc(-c2nc(-c3ncccc3Br)no2)c1O [Compound 257, 2-[3-(3-Bromo-pyridin-2-yl)-[1,2,4]oxadiazol-5-yl]-6-methoxy-phenol] | – | > 32 µM |
| COc1ccc(O)c(-c2nc(-c3ncccc3Br)no2)c1 [Compound 258, 2-[3-(3-Bromo-pyridin-2-yl)-[1,2,4]oxadiazol-5-yl]-4-methoxy-phenol] | – | > 10 µM |
| COc1ccc(-c2nc(-c3ncccc3Br)no2)c(O)c1 [Compound 259, 2-[3-(3-Bromo-pyridin-2-yl)-[1,2,4]oxadiazol-5-yl]-5-methoxy-phenol] | – | 2.5 µM |
| COc1cccc(-c2nc(-c3ccc(NC(C)=O)cn3)no2)c1O [Compound 260, N-{6-[5-(2-Hydroxy-3-methoxy-phenyl)-[1,2,4]oxadiazol-3-yl]-pyridin-3-yl}-acetamide] | – | 44.3 µM |
